Patent EP2599815B1, “POLYCARBOXYLIC ACID CONDENSATE, THERMOSETTING RESIN COMPOSITION, SUBSTRATE FOR MOUNTING SEMICONDUCTOR ELEMENT AND PROCESS FOR PRODUCING SAME, AND SEMICONDUCTOR DEVICE” (Hitachi Chemical Co., Ltd., priority 2010, dated 2012)
In brackets after ≈: the same amount, converted by molar mass. Like-named read-outs stand apart in the source and are kept apart here.

Legend:
[1] = Solubility in water at 30°C of carboxyl group-containing compounds; conditions: for solubility: distilled water, 30 °C, water, thermodynamic from solid

Compound | solubility [1] | further results
O=C(O)c1ccccc1C(=O)O [phthalic acid] | 9 mg/mL (≈ 54.2 mM) | –
tetrahydrophthalic acid | – | solubility in water (30°C): 5 mg/mL
O=C(O)C1CCCCC1C(=O)O (stereo not drawn) [hexahydrophthalic acid] | 1.5 mg/mL (≈ 8.71 mM) | –
O=C(O)C1CCC(C(=O)O)C(C(=O)O)C1 (stereo not drawn) [hydrogenated trimellitic acid] | – | solubility in water (30°C) ([1]; weight of solute per 1 L of distilled water in a saturated aqueous solution at 30°C): 300 mg/mL (≈ 1390 mM)

Second part, led by results:

solubility [1] | Compound | further results
20 mg/mL (≈ 95.2 mM) | O=C(O)c1ccc(C(=O)O)c(C(=O)O)c1 [trimellitic acid] | –
800 mg/mL (≈ 6890 mM) | O=C(O)/C=C\C(=O)O [maleic acid] | –
